Laboratory results: paper PMC9400994, “3,4,5‐Trihydroxypiperidine Based Multivalent Glucocerebrosidase (GCase) Enhancers” (Chembiochem, 2022)

Assays:
[1] = target: T1, GCase (Homo sapiens, UniProt P04062); set-up: method as in earlier work; details: 100 μM; ref 20a; cited from earlier work
T1 sequence (P04062 40-536): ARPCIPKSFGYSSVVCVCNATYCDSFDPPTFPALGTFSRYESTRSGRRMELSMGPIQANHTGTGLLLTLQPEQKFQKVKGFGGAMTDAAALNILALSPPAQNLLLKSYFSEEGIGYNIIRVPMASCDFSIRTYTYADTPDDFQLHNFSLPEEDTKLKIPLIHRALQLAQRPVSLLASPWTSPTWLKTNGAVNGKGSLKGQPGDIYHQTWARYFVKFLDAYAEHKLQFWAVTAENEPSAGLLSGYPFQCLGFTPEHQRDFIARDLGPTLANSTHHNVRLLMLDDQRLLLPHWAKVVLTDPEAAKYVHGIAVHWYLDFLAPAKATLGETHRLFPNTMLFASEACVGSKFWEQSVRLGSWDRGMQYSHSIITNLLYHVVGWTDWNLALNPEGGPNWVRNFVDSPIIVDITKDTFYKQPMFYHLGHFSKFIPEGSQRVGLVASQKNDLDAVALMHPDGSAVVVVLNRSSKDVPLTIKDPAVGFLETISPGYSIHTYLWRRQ

[2] = target: T1, GCase; test: Inhibitory activity towards human GCase in leukocyte extracts from healthy donors; assay type: biochemical; set-up: screened towards GCase from leukocytes isolated from healthy donors (controls); Isolated leukocytes were disrupted by sonication; from tissue; host or cells: pooled human leukocytes from healthy donors, sonicated homogenate; details: for IC50: GCase from leukocytes of healthy donors, 4-methylumbelliferyl-β-D-glucoside 3.33 mM; for inhibition at 1000 µM: human leukocyte extracts, inhibitor 1 mM, 37 °C, read-out: GCase inhibition (percentage inhibition); for rp/n (multivalent effect): relative potency divided by number of binding units n; for rp (relative potency): with respect to monovalent compound 18
Procedure: The compounds were screened in extracts from a pool of human leucocytes isolated from healthy donors (1 mM inhibitor concentration, 37 °C and optimal pH conditions, see Experimental Section). […] Isolated leukocytes were disrupted by sonication, and a micro BCA protein assay kit (Sigma‐Aldrich) was used to determine the total protein amount for the enzymatic assay, according to the manufacturer instructions. Enzyme activity was measured in a flat‐bottomed 96‐well plate. […] Percentage GCase inhibition is given with respect to the control (without iminosugar). Data are mean ± SD (n=3).
Data are mean ± SD (n=3). Data obtained were fitted using the Origin Microcal program (see the Supporting Information file for further details). […]
leukocytes isolated from healthy donors (controls). Isolated leukocytes were disrupted by sonication, and a micro BCA protein assay kit (Sigma –Aldrich) was used to determine the total protein amount for the enzymatic assay, according to the manufactu rer instructions. Enzyme activity was measured in a flat - […]
GCase inhibition is given with respect to the control (without iminosugar). Data are mean ± SD (n=3).
The corresponding calculated
IC50 determination: The IC50 values of inhibitors against GCase were determined by measuring the initial […]
Data are mean ± SD (n=3). Data obtained were fitted to the following equation using the Origin Microcal program. where Vi/Vo, represent the ratio between the activity measured in the presence of the inhibitor (Vi) and the activity of the control without the inhibitor (V0), “x” the inhibitor concentration, Max and Min, the maximal and minimal enzymatic activity observed, respectively.

| Structure (SMILES) | Increase of enzyme activity [1] [fold] | IC50 [2] [µM] | inhibition at 1000 µM [2] [%] | rp/n (multivalent effect) [2] | rp (relative potency) [2] |
| --- | --- | --- | --- | --- | --- |
| CCCCCCCCN1CC(O)C(O)C(O)C1 (stereo not shown) | 1.25 | – | – | – | – |
| NC(COCc1cn(CCCCCCCCCN2C[C@@H](O)C(O)[C@H](O)C2)nn1)(COCc1cn(CCCCCCCCCN2C[C@@H](O)C(O)[C@H](O)C2)nn1)COCc1cn(CCCCCCCCCN2C[C@@H](O)C(O)[C@H](O)C2)nn1 [Compound 11] | – | 27 ± 3 | 100 | 6 | 19 |
| OC1[C@H](O)CN(CCCCCCCCCn2cc(COCC(COCc3cn(CCCCCCCCCN4C[C@@H](O)C(O)[C@H](O)C4)nn3)(COCc3cn(CCCCCCCCCN4C[C@@H](O)C(O)[C@H](O)C4)nn3)COCc3cn(CCCCCCCCCN4C[C@@H](O)C(O)[C@H](O)C4)nn3)nn2)C[C@H]1O [Compound 13] | – | 9 ± 4 | – | 14 | 56 |
| OC1[C@H](O)CN(CCCCCCCCCn2cc(COC[C@@H](OCc3cn(CCCCCCCCCN4C[C@@H](O)C(O)[C@H](O)C4)nn3)[C@@H](OCc3cn(CCCCCCCCCN4C[C@@H](O)C(O)[C@H](O)C4)nn3)[C@H](OCc3cn(CCCCCCCCCN4C[C@@H](O)C(O)[C@H](O)C4)nn3)[C@@H](COCc3cn(CCCCCCCCCN4C[C@@H](O)C(O)[C@H](O)C4)nn3)OCc3cn(CCCCCCCCCN4C[C@@H](O)C(O)[C@H](O)C4)nn3)nn2)C[C@H]1O [Compound 14] | – | 6 ± 2 | – | 14 | 83 |
| O=C(CCCCC(=O)NC(COCc1cn(CCCCCCCCCN2C[C@@H](O)C(O)[C@H](O)C2)nn1)(COCc1cn(CCCCCCCCCN2C[C@@H](O)C(O)[C@H](O)C2)nn1)COCc1cn(CCCCCCCCCN2C[C@@H](O)C(O)[C@H](O)C2)nn1)NC(COCc1cn(CCCCCCCCCN2C[C@@H](O)C(O)[C@H](O)C2)nn1)(COCc1cn(CCCCCCCCCN2C[C@@H](O)C(O)[C@H](O)C2)nn1)COCc1cn(CCCCCCCCCN2C[C@@H](O)C(O)[C@H](O)C2)nn1 [Compound 15] | – | 11 ± 3 | – | 8 | 45 |
| OCc1cn(CCCCCCCCCN2C[C@@H](O)C(O)[C@H](O)C2)nn1 [Compound 18] | – | 500 ± 50 | ~70 | – | – |
